Test results as given in PMC10907374, “G2019S selective LRRK2 kinase inhibitor abrogates mitochondrial DNA damage” (NPJ Parkinson's Disease, 2024).
Entries after “also recorded” stand apart in the source; their conditions may differ.

Experiments:
[1] = test system: G2019S-LRRK2 expressing HEK293 cells; assay: Mito DNADX mtDNA damage and mtDNA copy number in G2019S-LRRK2 overexpressing HEK293 cells; format: cell-based, human; settings: 10 nM-1 μM, 2 h
Description: (§1) Cells were plated at a density of 0.3 × 10^6 cells in a 6-well dish and treated at ~40–50% confluency. At the time of harvest, cells were collected and either protein collected or DNA extracted as described below.
(§2) The tool compound EB-42168 was discovered as part of a small molecule discovery program aimed at identifying LRRK2 kinase inhibitors that are selective for the pathogenic G2019S LRRK2 variant. […] MLi‐2 inhibits WT LRRK2 ~1000‐fold more than EB‐42168[20].
(§3) Cells were collected and the nuclei and mitochondria were isolated as previously described. DNA was extracted from LRRK2-WT and G2019S-LRRK2 cells, and wild-type and LRRK2^G2019S/G2019S KI cells using QuickGene DNA Whole Blood Kit L (Autogen, fk-dbl). PD patient LRRK2 G2019S and healthy subject control-derived LCL DNA was extracted using the QuickGene DNA Tissue Kit L (Autogen, fk-dtl), utilizing a semi-automated system (Autogen, QuickGene-610L). For the Autogen system, the pellet was resuspended in 2 ml of 1X PBS, and the standard manufacturer’s protocol was conducted as if the cell suspension was whole blood. DNA was eluted with EDTA-free buffer, and quality was assessed using a Spectradrop microvolume microplate (Molecular Devices). Double-stranded DNA was quantified using Quant-iT Picogreen dsDNA assay (Thermo Fisher) as previously described.
(§4) DNA damage in the mitochondrial genome was measured utilizing Mito DNADX, an assay that we recently developed and described, currently the most robust way of measuring damage in mtDNA[39],[82]. The Mito DNADX assay combines optimized polymerase chain reaction (PCR) parameters using a high-fidelity DNA polymerase and a fluorescent dye that binds to double-stranded DNA that permits the real-time quantification of DNA damage in distinct loci in a 96-well platform. The premise of the Mito DNADX assay involves amplification of a specific mitochondrial PCR fragment in which less PCR product will be amplified when mtDNA damage or lesions block the ability of the DNA polymerase to replicate. As such, mtDNA damage or mtDNA repair intermediates that slow down or impair DNA polymerase progression will be detected. Therefore, equal amounts of sample DNA amplified under identical conditions can be directly compared across conditions to determine the mtDNA lesion frequency. Mitochondrial DNA lesion frequency was performed as previously described. Briefly, 15 ng of DNA was used to amplify long or short amplicons of the mitochondrial genome (as determined by primer sets). The amount of amplification is directly proportional to the number of undamaged DNA templates. Average lesion frequency is calculated as described. Results are presented with the values in experimental samples relative to control samples (normalized to 1 lesion per 10 kb). PCR reactions included KAPA Long Range HotStart DNA Polymerase (KAPA Biosystems)[49]. Each biological DNA sample was analyzed in technical triplicate. Limitations of the Mito DNADX assay have been recently discussed.

[2] = test system: LRRK2^G2019S/G2019S KI HEK293 cells; assay: Mitophagy (Mtphagy dye / Lyso dye live cell imaging) in LRRK2 G2019S/G2019S KI HEK293 cells; format: cell-based, human; settings: 100 nM 2 h pre-treatment; for basal levels of mitophagy: Mitophagy dye intensity or co-localization; for FCCP-stimulated mitophagy defect: then 20 μM FCCP 3 h
Description: (§5) Thirty-five mm cell culture dishes (Cellvis, D35-20-1.5-N) were coated with poly-D-lysine (Sigma-Aldrich, P7280-5MG) for 5 min, washed with cell culture grade water (Sigma-Aldrich, W3500), and allowed to dry for at least 1 h before plating. LRRK2^G2019S/G2019S KI HEK293 and wild-type cells were passaged as described above and plated at 300,000 cells per well on poly-D-lysine-coated dishes. […] Following this, cells were washed three times with serum-free medium, and a working solution of Mtphagy dye (Dojindo, MD-01) was prepared in serum-free medium according to manufacturer protocols. Cultures were incubated with Mtphagy dye for 30 min, followed by three washes with serum-free medium. Complete medium was used to prepare a 20 µM FCCP (Abcam, ab120081) or DMSO control treatment solution, which was used to treat cells for 3 h. Following treatment, cells were then washed 3 times with serum-free medium, and a working solution of Lyso dye (Dojindo, MD-01) was prepared in serum-free medium and used to treat cells for 30 min. Complete medium lacking phenol red was prepared for use in confocal live cell imaging by combining phenol red-free DMEM/F-12 (Fisher Scientific, 21-041-025), FBS (VWR, 97068-085), and penicillin-streptomycin (VWR, 45000-652). Following Lyso dye treatment, cultures were washed three times with phenol red-free medium, followed by adding fresh phenol red-free medium to cell culture dishes. MitoBright LT Deep Red (Dojindo, MT12-12) was diluted in growth medium to prepare a 0.1 μmol/l solution and was used to treat cells for 15 min for total mitochondrial staining. Live cell imaging (5% CO2, 37 °C) was performed using a Zeiss LSM 880 Confocal Laser Scanning Microscope with Zen Black software. On average, ~70 cells were analyzed for each condition per each experimental replicate.
(§6) Following imaging, files were processed using Zen Blue software, and TIFF files of each channel were obtained for analysis. ImageJ was used to obtain readouts for image analysis. All images were converted to 8-bit format. For each respective image, the Lyso dye channel was used to create a mask delineating each lysosomal focus as a region of interest (ROI). Thresholding parameters were adjusted between biological replicates as required to ensure that the Lyso dye ROI encompassed all lysosome foci appropriately, and this was used to create a mask. This was then applied to the corresponding Mtphagy dye channel image, allowing collection of Mtphgy fluorescence intensity readouts for each lysosomal focus. Outliers were removed using Prism software (GraphPad) with the coefficient of removal set to 0.2%. Data was thresholded to exclude lysosomes not containing mitochondria by excluding fluorescence values with intensities equal to or below background levels. The number of ROIs remaining after thresholding was used to quantify lysosomes containing fluorescing mitochondria (mitolysosomes). Fluorescence intensity values for all mitolysosomes per condition per biological replicate were averaged to obtain a value of mitophagy fluorescence intensity per mitolysosome. For each replicate, all values of average mitolysosome fluorescence intensity were normalized to wild-type (vehicle treated) levels for the given replicate.

[3] = test system: LRRK2^G2019S/G2019S KI HEK293 cells; assay: Mito DNADX mtDNA damage and mtDNA copy number in LRRK2 G2019S/G2019S KI HEK293 cells; format: cell-based, human; settings: for mtDNA copy number / mtDNA damage: LRRK2 G2019S/G2019S KI cells, 2 h; for mtDNA copy number: 10 nM-1 μM
Description: as §1
Following this treatment, “Post-treatment recovery 0 h” samples were collected immediately, or vehicle or MLi-2-containing treatment medium was washed out and replaced with fresh medium and incubated for 2 additional hours and then collected as “Post-treatment recovery 2 h” samples. Isolation, quantitation, and mtDNA damage was performed as described below.
as §2, §3, §4

wild-type HEK293 cells = assay: Mitophagy (Mtphagy dye / Lyso dye live cell imaging) in wild-type HEK293 cells; format: cell-based, human; settings: 100 nM 2 h pre-treatment; for basal levels of mitophagy: Mitophagy dye intensity or co-localization; for FCCP-stimulated mitophagy: then 20 μM FCCP 3 h
Description: as §5, §6

[4] = test system: WT-LRRK2 expressing HEK293 cells; assay: Mito DNADX mtDNA damage and mtDNA copy number in WT-LRRK2 overexpressing HEK293 cells; format: cell-based, human; settings: 10 nM-1 μM, 2 h
Description: as §1, §2, §3
as §4, with “Results are presented with the values in experimental samples relative to control samples (normalized to 1 lesion per 10 kb). PCR reactions included KAPA Long Range HotStart DNA Polymerase (KAPA Biosystems)[49].” left out, “Limitations of the Mito DNADX assay have been recently discussed.” left out

G2019S LRRK2 = settings: cited from earlier work

Compound	mtDNA copy number [1]	mtDNA damage [1]	mtDNA damage ([1]; listed as EB-42618)	basal levels of mitophagy [2]	FCCP-stimulated mitophagy defect [2]	mtDNA copy number [3]	mtDNA copy number ([3]; listed as EB-42618)	mtDNA damage ([3]; all concentrations tested (10 nM-1 μM))	basal levels of mitophagy (wild-type HEK293 cells)	FCCP-stimulated mitophagy (wild-type HEK293 cells)	mtDNA copy number [4]	mtDNA damage [4]	fold more potent inhibition of G2019S LRRK2 than wild-type LRRK2 (G2019S LRRK2) [fold]	mtDNA copy number after inhibitor washout ([3]; 100 nM for 2 h, washout, 2 h recovery)	mtDNA damage phenotype after inhibitor washout ([3]; KI cells, 100 nM for 2 h, washout, 2 h recovery in media)	time to re-establishment of mtDNA damage phenotype after washout ([3]; KI cells, 100 nM for 2 h then washout) [h]	mtDNA damage ([3]; 100 nM)	potency in recombinant cell lines expressing WT-LRRK2 or G2019S-LRRK2 (G2019S LRRK2)
CC1=C(C(=O)Nc2ccc3[nH]nc(-c4ccnc(N5CCOCC5)c4)c3c2)C(C)(C)n2nnnc2N1C [EB-42168]	not different; also recorded: did not change	normalizing damage to WT-LRRK2 control levels (or lower)	abrogated	did not impact	failed to rescue	reduced	modestly decreased	reversed to wild-type levels	did not impact	blocked	not different; also recorded: did not change	No effect	100	–	–	–	–	–
C[C@@H]1CN(c2cc(-c3n[nH]c4ccc(OC5(C)CC5)cc34)ncn2)C[C@H](C)O1 [MLi-2, reference compound]	no effect; also recorded: unaltered	restored mtDNA damage to WT-LRRK2 control levels	–	did not impact	failed to rescue	did not change; also recorded: No effect; also recorded: No changes	–	–	did not impact	blocked	no effect; also recorded: unaltered	trend toward an increase in mtDNA damage	–	no changes	fully re-established	≤ 2	reversed mtDNA damage levels to wild-type levels	equipotent
